Reference: patent publication US10689363B2 (Merck Patent GmbH, priority 2017, dated 2020)
≈ marks a conversion by molar mass, not a printed value. Where two headings read alike, the source gives them in different places.

How the values were obtained:
Assay type in all cases: physicochemical
[1] = Water Vapour Sorption isotherm (25° C., DVS-Intrinsic), hygroscopicity acc. to Ph. Eur. 5.11.; settings: for water uptake levels: 25° C.
Experimental: (§1) (based on multiple measurements on different samples of form A2). […] DSC scan of form A2 was acquired on a Mettler-Toledo DSC 821 with a heating rate of 50 K/min, using nitrogen purge gas at 50 mL/min. TGA scan of form A2 was acquired on a Mettler-Toledo TGA 851 with a heating rate of 5 K/min, using nitrogen purge gas at 50 mL/min. […] Eur. Criteria (section 5.11.). Water Vapour Sorption isotherm was acquired on a DVS-Intrinsic system from SMS.
(based on multiple measurements on different samples of form NF5). […] Eur. Criteria (section 5.11.). […] Water Vapour Sorption isotherm was acquired on a DVS-Intrinsic system from SMS.
(based on multiple measurements on one sample of form NF6). […] Eur. Criteria (section 5.11.). […] Water Vapour Sorption isotherm was acquired on a DVS-Intrinsic system from SMS.
Eur. Criteria (section 5.11.). […] Water Vapour Sorption isotherm was acquired on a DVS-Intrinsic system from SMS.
as §1, with “Other physical properties of” for “(based on multiple measurements on different samples of”, “form Fumarate-NF1 include the following: ^1H-NMR spectroscopic data reveal a API:Fumarate molar ratio of 1:1.” for “form A2).”, “form Fumarate-NF1” for “form A2”, “of 5” for “of 50”, “5.11.). […]” for “5.11.).”
Other physical properties of form Maleate-NF1 include the following: ^1H-NMR spectroscopic data reveal a API:Maleate molar ratio of 1:1. […] DSC scan of form Maleate-NF1 was acquired on a Mettler-Toledo DSC 821 with a heating rate of 5 K/min, using nitrogen purge gas at 50 mL/min. TGA scan of form Maleate-NF1 was acquired on a Mettler-Toledo TGA 851 with a heating rate of 5 K/min, using nitrogen purge gas at 50 mL/min. […] Form Maleate-NF1 can be classified as non-hygroscopic according to Ph. Eur. Criteria (section 5.11.). […] Water Vapour Sorption isotherm was acquired on a DVS-Intrinsic system from SMS.
Other physical properties of form Citrate-NF1 include the following: ^1H-NMR spectroscopic data reveal a API:Citrate molar ratio of 1:1. […] DSC scan of form Citrate-NF1 was acquired on a Mettler-Toledo DSC 821 with a heating rate of 5 K/min, using nitrogen purge gas at 50 mL/min. TGA scan of form Citrate-NF1 was acquired on a Mettler-Toledo TGA 851 with a heating rate of 5 K/min, using nitrogen purge gas at 50 mL/min. […] Eur. Criteria (section 5.11.). […] Water Vapour Sorption isotherm was acquired on a DVS-Intrinsic system from SMS.
(based on multiple measurements on different samples of form A1). […] DSC scan of form A1 was acquired on a Mettler-Toledo DSC 821 with a heating rate of 50 K/min, using nitrogen purge gas at 50 mL/min. TGA scan of form A1 was acquired on a Mettler-Toledo TGA 851 with a heating rate of 5 K/min, using nitrogen purge gas at 50 mL/min. […] Eur. Criteria (section 5.11.). […] Water Vapour Sorption isotherm was acquired on a DVS-Intrinsic system from SMS. […] Dissolution level of form A1 in Fasted-State Simulated Intestinal Fluid [FaSSIF, pH 6.5] at 37° C. was determined to be approx. 36 μg/mL (after 2 h), and dissolution level of form A1 in Fed-State Simulated Intestinal Fluid [FeSSIF, pH 5.0] at 37° C. was determined to be approx. 214 μg/mL (after 2 h), respectively (see example 11).
All forms were characterized according to standard methods which are found in e.g. Rolf Hilfiker, ‘Polymorphism in the Pharmaceutical Industry’. Wiley-VCH. Weinheim 2006 (Chapter 6: X-Ray Diffraction. Chapter 6: Vibrational Spectroscopy. Chapter 3: Thermal Analysis, Chapter 9: Water Vapour Sorption, and references therein); and H. G. Brittain, ‘Polymorphism in Pharmaceutical Solids. Vol. 95. Marcel Dekker Inc., New York 1999 (Chapter 6 and references therein).

[2] = Thermodynamic solubility (24 h, 37° C.) in FaSSIF medium or USP Phosphate buffer; settings: for solubility thermodynamic at 24 h: 37 °C, thermodynamic from solid
[3] = Mini-dissolution in FaSSIF / FeSSIF medium at 37° C.; settings: for Dissolution levels in FaSSIF pH 6.5: FaSSIF pH 6.5, 37° C.; for Dissolution levels in FeSSIF pH 5.0: FeSSIF pH 5.0, 37° C.
Experimental: All dispersions were agitated at 37° C. for up to 2 hours. At defined time intervals (30 min. 60 min, 120 min), sample aliquots of homogeneous dispersions were withdrawn by a syringe, and filtrated via syringe filter adapters (PTFE, 0.45 μm).

[4] = 120 min (2 h), listed as form Succinate-NF1
[5] = 120 min (2 h), listed as form Oxalate-NF1
[6] = 120 min (2 h), listed as form Malonate-NF1

hygroscopicity classification according to Ph. Eur. Criteria (section 5.11.) [1]	Dissolution levels in FaSSIF pH 6.5 ([3]; 30 min)	Dissolution levels in FaSSIF pH 6.5 ([3]; 60 min)	Dissolution levels in FaSSIF pH 6.5 ([3]; 120 min (2 h))	dissolution levels (2 h), factor higher vs form A1 ([3]; FaSSIF)	Dissolution levels in FeSSIF pH 5.0 ([3]; 30 min)	Dissolution levels in FeSSIF pH 5.0 ([3]; 60 min)	Dissolution levels in FeSSIF pH 5.0 ([3]; 120 min (2 h))	dissolution levels (2 h), factor higher vs form A1 ([3]; FeSSIF)	SMILES	also measured
Slightly hygroscopic									C=CC(=O)N1CCC(CNc2ncnc(N)c2-c2ccc(Oc3ccccc3)cc2)CC1.O=C(O)CCC(=O)O [Citrate-NF1, 1-(4-{[6-Amino-5-(4-phenoxy-phenyl)-pyrimidin-4-ylamino]-methyl}-piperidin-1-yl)-propenone]	hygroscopicity classification according to Ph. Eur. Criteria (section 5.11.) ([1]; listed as form Citrate-NF1): slightly hygroscopic; water uptake levels ([1]; relative humidity range 0-80% rh, listed as form Citrate-NF1): < 2.0 wt %
Slightly hygroscopic									C=CC(=O)N1CCC(CNc2ncnc(N)c2-c2ccc(Oc3ccccc3)cc2)CC1.O=C(O)CCC(=O)O [Fumarate-NF1, 1-(4-{[6-Amino-5-(4-phenoxy-phenyl)-pyrimidin-4-ylamino]-methyl}-piperidin-1-yl)-propenone]	hygroscopicity classification according to Ph. Eur. Criteria (section 5.11.) ([1]; listed as form Fumarate-NF1): slightly hygroscopic; water uptake levels ([1]; relative humidity range 0-80% rh, listed as form Fumarate-NF1): < 0.5 wt %
Non-hygroscopic									C=CC(=O)N1CCC(CNc2ncnc(N)c2-c2ccc(Oc3ccccc3)cc2)CC1.O=C(O)CCC(=O)O [Maleate-NF1, 1-(4-{[6-Amino-5-(4-phenoxy-phenyl)-pyrimidin-4-ylamino]-methyl}-piperidin-1-yl)-propenone]	hygroscopicity classification according to Ph. Eur. Criteria (section 5.11.) ([1]; listed as form Maleate-NF1): non-hygroscopic; water uptake levels ([1]; relative humidity range 0-80% rh, listed as form Maleate-NF1): < 0.5 wt %
slightly hygroscopic									C=CC(=O)N1CCC(CNc2ncnc(N)c2-c2ccc(Oc3ccccc3)cc2)CC1 [form A2, 1-(4-{[6-Amino-5-(4-phenoxy-phenyl)-pyrimidin-4-ylamino]-methyl}-piperidin-1-yl)-propenone]	hygroscopicity classification according to Ph. Eur. Criteria (section 5.11.) ([1]; listed as A2): Slightly hygroscopic; water uptake levels ([1]; relative humidity range 0-98% rh): ≤ 1 wt %; water uptake levels ([1]; relative humidity range 90-98% rh): ≤ 2 wt %; thermodynamic solubility compared to form A1 (in words) [2]: higher; thermodynamic solubility, factor higher vs form A1 ([2]; FaSSIF): ~1.5; solubility thermodynamic at 24 h ([2]; FaSSIF medium, pH 6.5, fassif, FaSSIF pH 6.5, 37° C., read-out: Thermodynamic solubility FaSSIF pH 6.5): ~33 µg/mL (≈ 76.8 µM); thermodynamic solubility, factor higher vs form A1 ([2]; PBS buffer pH 7.4): ~2; solubility thermodynamic at 24 h ([2]; USP phosphate buffer, pH 7.4, aqueous buffer, USP Phosphate buffer pH 7.4, 37° C., read-out: Thermodynamic solubility PBS buffer 7.4): ~27 µg/mL (≈ 62.9 µM)
Slightly hygroscopic	92 μg/mL	95 μg/mL	100 μg/mL	~3	625 μg/mL	708 μg/mL	743 μg/mL	~3.5	C=CC(=O)N1CCC(CNc2ncnc(N)c2-c2ccc(Oc3ccccc3)cc2)CC1.O=C(O)CCC(=O)O [Succinate-NF1, 1-(4-{[6-Amino-5-(4-phenoxy-phenyl)-pyrimidin-4-ylamino]-methyl}-piperidin-1-yl)-propenone]	Dissolution levels in FaSSIF pH 6.5 [3, 4]: approx. 100 μg/mL; Dissolution levels in FeSSIF pH 5.0 [3, 4]: approx. 743 μg/mL; hygroscopicity classification according to Ph. Eur. Criteria (section 5.11.) ([1]; listed as form Succinate-NF1): slightly hygroscopic; water uptake levels ([1]; relative humidity range 0-80% rh, listed as form Succinate-NF1): ≤ 2.0 wt %
Slightly hygroscopic	50 μg/mL	54 μg/mL	58 μg/mL	~1.5	600 μg/mL	700 μg/mL	740 μg/mL	~3.5	C=CC(=O)N1CCC(CNc2ncnc(N)c2-c2ccc(Oc3ccccc3)cc2)CC1.O=C(O)CCC(=O)O [Oxalate-NF1, 1-(4-{[6-Amino-5-(4-phenoxy-phenyl)-pyrimidin-4-ylamino]-methyl}-piperidin-1-yl)-propenone]	Dissolution levels in FaSSIF pH 6.5 [3, 5]: approx. 58 μg/mL; Dissolution levels in FeSSIF pH 5.0 [3, 5]: approx. 740 μg/mL; hygroscopicity classification according to Ph. Eur. Criteria (section 5.11.) ([1]; listed as form Oxalate-NF1): slightly hygroscopic; water uptake levels ([1]; relative humidity range 0-80% rh, listed as form Oxalate-NF1): < 1.0 wt %
Slightly hygroscopic	47 μg/mL	53 μg/mL	75 μg/mL	~2	651 μg/mL	694 μg/mL	740 μg/mL	~3.5	C=CC(=O)N1CCC(CNc2ncnc(N)c2-c2ccc(Oc3ccccc3)cc2)CC1.O=C(O)CCC(=O)O [Malonate-NF1, 1-(4-{[6-Amino-5-(4-phenoxy-phenyl)-pyrimidin-4-ylamino]-methyl}-piperidin-1-yl)-propenone]	Dissolution levels in FaSSIF pH 6.5 [3, 6]: approx. 75 μg/mL; Dissolution levels in FeSSIF pH 5.0 [3, 6]: approx. 740 μg/mL; hygroscopicity classification according to Ph. Eur. Criteria (section 5.11.) ([1]; listed as form Malonate-NF1): slightly hygroscopic; water uptake levels ([1]; relative humidity range 0-80% rh, listed as form Malonate-NF1): < 0.5 wt %
